Patent publication US5686486A, “4-hydroxy-benzopyran-2-ones and 4-hydroxy-cycloalkyl[b]pyran-2-ones useful to treat retroviral infections” (priority 1995, dated 1997)
Read-outs that look alike come from different tables or passages of the source.

Biological target: HIV-1 protease (Human immunodeficiency virus type 1 group M subtype B, UniProt P04585)
Assay: biochemical
Conditions: for inhibition at 0.123 µM: read-out: HIV-1 Protease % Inhib, dose 0.123 uM
Method in brief: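 Percent inhibition derived from fluorescent cleavage product separated by filtration after streptavidin-bead capture of intact biotin/FITC substrate. Reaction: enzyme (10 μl, 0.1 μM stock) with substrate (20 μl, 0.2 μM stock) and compound, 1 h at room temperature in dark, pH 5.5 acetate buffer with 1.0 M NaCl and 0.05% NP-40.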

[1] = read-out: HIV-1 Protease % Inhib, dose 0.370 uM
[2] = read-out: HIV-1 Protease % Inhib, dose 1.100 uM
[3] = read-out: HIV-1 Protease % Inhib, dose 3.300 uM
[4] = read-out: HIV-1 Protease % Inhib, dose 10.000 uM
[5] = read-out: HIV-1 Protease % Inhib, dose 30.000 uM
[6] = dose 3.300 uM, read-out: HIV-1 Protease % Inhib
[7] = dose 10.000 uM, read-out: HIV-1 Protease % Inhib
[8] = dose 30.000 uM, read-out: HIV-1 Protease % Inhib
[9] = dose 1.100 uM, read-out: HIV-1 Protease % Inhib
[10] = dose 0.370 uM, read-out: HIV-1 Protease % Inhib

Q: `O=c1oc2c(c(O)c1C(c1cccc(NS(=O)(=O)c3ccc(Br)cc3)c1)C1CC1)CCCCCC2` (stereo not drawn) [Example 272, 4-Bromo-N-[3-[cyclopropyl(5,6,7,8,9,10-hexahydro-4-hydroxy-2-oxo-2H-cycloocta[b]pyran-3-yl)methyl]phenyl]-benzenesulfonamide] was tested. Which inhibition at 0.123 µM did it give?
A: 67.1%

Q: What about the inhibition at 0.37 µM [1] of the same compound?
A: 85.2%

Q: And the inhibition at 1.1 µM [2]?
A: 95.3%

Q: And the inhibition at 3.3 µM [3]?
A: 96.2%

Q: What about the inhibition at 10 µM [4] of the same compound?
A: 101%

Q: And the inhibition at 30 µM [5]?
A: 104%

Q: How did the inhibition at 0.123 µM turn out when `O=c1oc2c(c(O)c1C(c1cccc(NS(=O)(=O)c3ccc([N+](=O)[O-])cc3)c1)C1CC1)CCCCCC2` (stereo not drawn) [Example 273, N-[3-[Cyclopropyl(5,6,7,8,9,10-hexahydro-4-hydroxy-4-oxo-2H-cycloocta[b]pyran-3-yl)methyl]phenyl]4-nitro-benzenesulfonamide] was run?
A: 68.4%

Q: And the inhibition at 0.37 µM [1]?
A: 92.3%

Q: What about the inhibition at 1.1 µM [2] of the same compound?
A: 95.9%

Q: And the inhibition at 3.3 µM [3]?
A: 98.2%

Q: And the inhibition at 10 µM [4]?
A: 102%

Q: And the inhibition at 30 µM [5]?
A: 108%

Q: Which inhibition at 0.123 µM does the source give for `O=c1oc2c(c(O)c1C(c1cccc(NS(=O)(=O)c3cccc([N+](=O)[O-])c3)c1)C1CC1)CCCCCC2` (stereo not drawn) [Example 274, N-[3-[Cyclopropyl(5,6,7,8,9,10-hexahydro-4-hydroxy-2-oxo-2H-cycloocta[b]pyran-3-yl)methyl]phenyl]-3-nitro-benzenesulfonamide] here?
A: 70%

Q: What about the inhibition at 0.37 µM [1] of the same compound?
A: 88.2%

Q: And the inhibition at 1.1 µM [2]?
A: 95.8%

Q: And the inhibition at 3.3 µM [3]?
A: 98.8%

Q: And the inhibition at 10 µM [4]?
A: 103%

Q: And the inhibition at 30 µM [5]?
A: 105%

Q: With `COc1ccc(S(=O)(=O)Nc2cccc(C(c3c(O)c4c(oc3=O)CCCCCC4)C3CC3)c2)cc1` (stereo not drawn) [Example 275, N-[3-[Cyclopropyl(5,6,7,8,9, 10-hexahydro-4-hydroxy-2-oxo-2H-cycloocta[b]pyran-3-yl)methyl]phenyl]-4-methoxy-benzenesulfonamide] as the compound, how does the inhibition at 0.123 µM read?
A: 79.3%

Q: And the inhibition at 0.37 µM [1]?
A: 120%

Q: What about the inhibition at 1.1 µM [2] of the same compound?
A: 128%

Q: What about the inhibition at 3.3 µM [3] of the same compound?
A: 131%

Q: What about the inhibition at 10 µM [4] of the same compound?
A: 133%

Q: What about the inhibition at 30 µM [5] of the same compound?
A: 131%

Q: `O=C(O)c1ccc(S(=O)(=O)Nc2cccc(C(c3c(O)c4c(oc3=O)CCCCCC4)C3CC3)c2)cc1` (stereo not drawn) [Example 276, 4-[[[3-[Cyclopropyl(5,6,7,8,9,10-hexahydro-4-hydroxy-2-oxo-2H-cycloocta[b]pyran-3-yl)methyl]phenyl]amino]sulfonyl]-benzoic acid] was tested. Which inhibition at 0.123 µM did it give?
A: 53.4%

Q: And the inhibition at 0.37 µM [1]?
A: 92.8%

Q: What about the inhibition at 1.1 µM [2] of the same compound?
A: 99.3%

Q: What about the inhibition at 3.3 µM [3] of the same compound?
A: 94.7%

Q: And the inhibition at 10 µM [4]?
A: 112%

Q: And the inhibition at 30 µM [5]?
A: 124%

Q: Which inhibition at 3.3 µM [6] does the source give for `Cc1cc(C)c(S(=O)(=O)Nc2cccc(C(c3c(O)c4c(oc3=O)CCCCCC4)C3CC3)c2)c(C)c1` (stereo not drawn) [Example 277, N-[3-[Cyclopropyl(5,6,7,8,9,10-hexahydro-4-hydroxy-2-oxo-2H-cycloocta[b]pyran-3-yl)methyl]phenyl]-2,4,6-trimethyl-benzenesulfonamide] here?
A: 37.9%

Q: And the inhibition at 10 µM [7]?
A: 79.9%

Q: What about the inhibition at 30 µM [8] of the same compound?
A: 94.1%

Q: `O=c1oc2c(c(O)c1C(c1cccc(NS(=O)(=O)c3ccc(F)cc3F)c1)C1CC1)CCCCCC2` (stereo not drawn) [Example 279, N-[3-[Cyclopropyl(5,6,7,8,9,10-hexahydro-4-hydroxy-2-oxo-2H-cycloocta[b]pyran-3-yl)methyl]phenyl]-2,4-difluoro-benzenesulfonamide] was tested. Which inhibition at 0.123 µM did it give?
A: 78.2%

Q: And the inhibition at 0.37 µM [1]?
A: 97.3%

Q: And the inhibition at 1.1 µM [2]?
A: 105%

Q: And the inhibition at 3.3 µM [3]?
A: 103%

Q: And the inhibition at 10 µM [4]?
A: 109%

Q: What about the inhibition at 30 µM [5] of the same compound?
A: 94.8%

Q: Which results are given for `CCCCOc1ccc(S(=O)(=O)Nc2cccc(C(c3c(O)c4c(oc3=O)CCCCCC4)C3CC3)c2)cc1` (stereo not drawn) [Example 282, 4-Butoxy-N-[3-[cyclopropyl(5,6,7,8,9,10-hexahydro-4-hydroxy-2-oxo-2H-cycloocta[b]pyran-3-yl)methyl]phenyl]-benzenesulfonamide]?
A: inhibition at 1.1 µM [9]: 10.6%; inhibition at 3.3 µM [6]: 43.2%; inhibition at 10 µM [7]: 65.3%; inhibition at 30 µM [8]: 96.3%

Q: How did the inhibition at 0.37 µM [10] turn out when `CN(C)c1cccc2c(S(=O)(=O)Nc3cccc(C(c4c(O)c5c(oc4=O)CCCCCC5)C4CC4)c3)cccc12` (stereo not drawn) [Example 283, N-[3-[Cyclopropyl(5,6,7,8,9,10-hexahydro4-hydroxy-2-oxo-2H-cycloocta[b]pyran-3-yl)methyl]phenyl]-5-(dimethylamino)-1-naphthalenesulfonamide] was run?
A: 10.6%

Q: And the inhibition at 1.1 µM [9]?
A: 42.3%

Q: And the inhibition at 3.3 µM [6]?
A: 64.2%

Q: What about the inhibition at 10 µM [7] of the same compound?
A: 85.1%

Q: What about the inhibition at 30 µM [8] of the same compound?
A: 80.2%

Q: How did the inhibition at 0.123 µM turn out when `O=c1oc2c(c(O)c1C(c1cccc(NS(=O)(=O)c3cccc(Cl)c3Cl)c1)C1CC1)CCCCCC2` (stereo not drawn) [Example 285, 2,3-Dichloro-N-[3-[cyclopropyl(5,6,7,8,9,10-hexahydro4-hydroxy-2-oxo-2H-cycloocta[b]pyran-3-yl)methyl]phenyl]-benzenesulfonamide] was run?
A: 37.6%

Q: What about the inhibition at 0.37 µM [1] of the same compound?
A: 73.8%

Q: And the inhibition at 1.1 µM [2]?
A: 84.6%

Q: And the inhibition at 3.3 µM [3]?
A: 95%

Q: What about the inhibition at 10 µM [4] of the same compound?
A: 97.7%

Q: What about the inhibition at 30 µM [5] of the same compound?
A: 91.8%

Q: `Cc1cccc(Cl)c1S(=O)(=O)Nc1cccc(C(c2c(O)c3c(oc2=O)CCCCCC3)C2CC2)c1` (stereo not drawn) [Example 287, 2-Chloro-N-[3-[cyclopropyl(5,6,7,8,9,10-hexahydro4-hydroxy-2-oxo-2H-cycloocta[b]pyran-3-yl)methyl]phenyl]-6-methyl-benzenesulfonamide] was tested. Which inhibition at 0.37 µM [10] did it give?
A: 14.1%

Q: What about the “HIV-1 Protease % Inhib” value (dose 1.100 uM) of the same compound?
A: 36.69%

Q: And the inhibition at 1.1 µM [9]?
A: 44.1%

Q: What about the “HIV-1 Protease % Inhib” value (dose 3.300 uM) of the same compound?
A: 64.32%

Q: And the inhibition at 3.3 µM [6]?
A: 68.2%

Q: What about the “HIV-1 Protease % Inhib” value (dose 10.000 uM) of the same compound?
A: 92.75%

Q: And the inhibition at 10 µM [7]?
A: 85.8%

Q: And the “HIV-1 Protease % Inhib” value (dose 30.000 uM)?
A: 106.21%

Q: What about the inhibition at 30 µM [8] of the same compound?
A: 86.7%

Q: With `O=c1oc2c(c(O)c1C(c1cccc(NS(=O)(=O)c3cc(Cl)cc(Cl)c3)c1)C1CC1)CCCCCC2` (stereo not drawn) [Example 288, 3,5-Dichloro-N-[3-[cyclopropyl(5,6,7,8,9,10-hexahydro-4-hydroxy-2-oxo-2H-cycloocta[b]pyran-3-yl)methyl]phenyl]-benzenesulfonamide] as the compound, how does the inhibition at 0.123 µM read?
A: 46.9%

Q: And the inhibition at 0.37 µM [1]?
A: 79.1%

Q: What about the inhibition at 1.1 µM [2] of the same compound?
A: 90.5%

Q: And the inhibition at 3.3 µM [3]?
A: 92.9%

Q: And the inhibition at 10 µM [4]?
A: 105%

Q: And the inhibition at 30 µM [5]?
A: 101%

Q: Which inhibition at 0.123 µM does the source give for `O=c1oc2c(c(O)c1C(c1cccc(NS(=O)(=O)c3cccc(Cl)c3)c1)C1CC1)CCCCCC2` (stereo not drawn) [Example 289] here?
A: 63.7%

Q: What about the inhibition at 0.37 µM [1] of the same compound?
A: 80%

Q: What about the inhibition at 1.1 µM [2] of the same compound?
A: 91.1%

Q: What about the inhibition at 3.3 µM [3] of the same compound?
A: 97.3%

Q: What about the inhibition at 10 µM [4] of the same compound?
A: 95.3%

Q: And the inhibition at 30 µM [5]?
A: 101%

Q: Which inhibition at 0.123 µM does the source give for `O=c1oc2c(c(O)c1C(c1cccc(NS(=O)(=O)c3cccc(Br)c3)c1)C1CC1)CCCCCC2` (stereo not drawn) [Example 291, 3-Bromo-N-[3-[cyclopropyl(5,6,7,8,9,10-hexahydro-4-hydroxy-2-oxo-2H-cycloocta[b]pyran-3-yl)methyl]phenyl]-benzenesulfonamide] here?
A: 80.4%

Q: What about the inhibition at 0.37 µM [1] of the same compound?
A: 108%

Q: What about the inhibition at 1.1 µM [2] of the same compound?
A: 109%

Q: And the inhibition at 3.3 µM [3]?
A: 122%

Q: What about the inhibition at 10 µM [4] of the same compound?
A: 118%

Q: And the inhibition at 30 µM [5]?
A: 117%

Q: `O=C(O)c1cccc(S(=O)(=O)Nc2cccc(C(c3c(O)c4c(oc3=O)CCCCCC4)C3CC3)c2)c1` (stereo not drawn) [Example 292, 3-[[[3-[Cyclopropyl(5,6,7,8,9,10-hexahydro4-hydroxy-2-oxo-2H-cycloocta[b]pyran-3-yl)methyl]phenyl]amino]sulfonyl]-benzoic acid] was tested. Which inhibition at 0.123 µM did it give?
A: 74.4%

Q: And the inhibition at 0.37 µM [1]?
A: 104%

Q: What about the inhibition at 1.1 µM [2] of the same compound?
A: 111%

Q: What about the inhibition at 3.3 µM [3] of the same compound?
A: 125%

Q: What about the inhibition at 10 µM [4] of the same compound?
A: 115%

Q: What about the inhibition at 30 µM [5] of the same compound?
A: 111%
